Laboratory results taken from ChEMBL document CHEMBL1649249, “Antifungal activity of micafungin in serum” (Antimicrob Agents Chemother, 2009).
*1 amine or outer side, *2 acyl side, *3 side chain or, on linkers, in order; H or OH if unused. Where a SMILES comes first, the peptide text is derived from it. Bridges are numbered along the chain shown (N, C = ends). [ ]: non-standard residue; d: D form. The star is where a group is joined. hTyr(3S-OH,4S-OH,3'-OSO3H) = N[C@H](C(=O)O)[C@H](O)[C@@H](O)c1ccc(O)c(OS(=O)(=O)O)c1; Orn(4R-OH,5R-OH) = O=C([C@H](C[C@@H](O)[C@@H](O)N[*:3])N[*:1])[*:2]; Pro(3S-OH,4S-Me) = C[C@H]1CN[C@H](C(=O)O)[C@H]1O; X1 = CCCCCOc1ccc(-c2cc(-c3ccc(C(=O)*)cc3)no2)cc1; Gln(3R-OH) = NC(=O)C[C@@H](O)[C@H](N)C(=O)O; Hyp = O=C(O)[C@@H]1C[C@@H](O)CN1

Columns and labels:
[1] = Ratio of MIC for Candida albicans FP633 collected from peak serum sample on day 43 from patient with malignant lymphoma at 4.8 mg/kg in presence of human serum to Cmax for patient with malignant lymphoma at 4.8 mg/kg; assay type: functional
[2] = Ratio of MIC for Candida albicans FP633 collected from trough serum sample on day 8 from patient with acute myeloid leukemia at 1.1 mg/kg in presence of human serum to Cmax for patient with acute myeloid leukemia at 1.1 mg/kg; assay type: functional
Candida albicans [3] = test: Antifungal activity against Candida albicans FP633 collected from peak serum sample on day 12 patient with malignant lymphoma at 2.6 mg/kg by disk diffusion method; assay type: functional
[4] = Cmax in patient with malignant lymphoma infected with Candida albicans FP633 at 2.6 mg/kg administered once daily after 12 days by HPLC; assay type: ADME, organism-based; set-up: dose 2.6 mg/kg; details: human, in vivo
[5] = Ratio of MIC for Candida albicans FP633 collected from trough serum sample on day 15 from patient with acute myeloid leukemia at 1.1 mg/kg to Cmax for patient with acute myeloid leukemia at 1.1 mg/kg; assay type: functional
[6] = Ratio of MIC for Candida albicans FP633 collected from peak serum sample on day 15 from patient with acute lymphoblastic leukemia at 1.2 mg/kg to Cmax for patient with acute lymphoblastic leukemia at 1.2 mg/kg; assay type: functional
[7] = Ratio of MIC for Candida albicans FP633 collected from trough serum sample on day 15 from patient with acute lymphoblastic leukemia at 1.2 mg/kg in presence of human serum to Cmax for patient with acute lymphoblastic leukemia at 1.2 mg/kg; assay type: functional
Candida albicans [8] = test: Antifungal activity against Candida albicans FP633 collected from peak serum sample on day 43 from patient with myelodysplastic syndrome at 1.4 mg/kg by disk diffusion method in presence of human serum; assay type: functional
Candida albicans [9] = test: Antifungal activity against Candida albicans FP633 collected from peak serum sample on day 12 patient with malignant lymphoma at 2.6 mg/kg by disk diffusion method in presence of human serum; assay type: functional
Candida albicans [10] = test: Antifungal activity against Candida albicans FP633 collected from peak serum sample on day 43 patient with malignant lymphoma at 4.8 mg/kg by disk diffusion method; assay type: functional
Candida albicans [11] = test: Antifungal activity against Candida albicans FP633 collected from peak serum sample on day 15 from patient with acute myeloid leukemia at 1.1 mg/kg by disk diffusion method in presence of human serum; assay type: functional
[12] = Ratio of MIC for Candida albicans FP633 collected from peak serum sample on day 12 from patient with malignant lymphoma at 2.6 mg/kg in presence of human serum to Cmax for patient with malignant lymphoma at 2.6 mg/kg; assay type: functional
[13] = Ratio of MIC for Candida albicans FP633 collected from peak serum sample on day 15 from patient with acute myeloid leukemia at 1.1 mg/kg to Cmax for patient with acute myeloid leukemia at 1.1 mg/kg; assay type: functional
[14] = Ratio of MIC for Candida albicans FP633 collected from peak serum sample on day 12 from patient with malignant lymphoma at 2.6 mg/kg to Cmax for patient with malignant lymphoma at 2.6 mg/kg; assay type: functional
[15] = Ratio of MIC for Candida albicans FP633 collected from peak serum sample on day 17 from patient with acute lymphoblastic leukemia at 1.2 mg/kg to Cmax for patient with acute lymphoblastic leukemia at 1.2 mg/kg; assay type: functional
Candida albicans [16] = test: Antifungal activity against Candida albicans FP633 collected from peak serum sample on day 43 from patient with myelodysplastic syndrome at 1.4 mg/kg by disk diffusion method; assay type: functional
Candida albicans [17] = test: Antifungal activity against Candida albicans FP633 collected from peak serum sample on day 17 from patient with acute lymphoblastic leukemia at 1.2 mg/kg by disk diffusion method in presence of human serum; assay type: functional
[18] = Cmax in patient with acute myeloid leukemia infected with Candida albicans FP633 at 1.1 mg/kg administered once daily after 15 days by HPLC; assay type: ADME, organism-based; set-up: dose 1.1 mg/kg; details: human, in vivo
Serum = test: Protein binding in human serum; assay type: ADME, cell-free
Candida albicans [19] = test: Antifungal activity against Candida albicans FP633 collected from trough serum sample on day 15 from patient with acute myeloid leukemia at 1.1 mg/kg by disk diffusion method; assay type: functional
Candida albicans [20] = test: Antifungal activity against Candida albicans FP633 collected from trough serum sample on day 15 from patient with acute myeloid leukemia at 1.1 mg/kg by disk diffusion method in presence of human serum; assay type: functional
[21] = Cmax in patient with acute myeloid leukemia infected with Candida albicans FP633 at 1.1 mg/kg administered once daily after 8 days by HPLC; assay type: ADME, organism-based; set-up: dose 1.1 mg/kg; details: human, in vivo
Candida albicans [22] = test: Antifungal activity against Candida albicans FP633 collected from peak serum sample on day 15 from patient with acute lymphoblastic leukemia at 1.2 mg/kg by disk diffusion method in presence of human serum; assay type: functional
[23] = Ratio of MIC for Candida albicans FP633 collected from trough serum sample on day 8 from patient with acute myeloid leukemia at 1.1 mg/kg to Cmax for patient with acute myeloid leukemia at 1.1 mg/kg; assay type: functional
[24] = Ratio of MIC for Candida albicans FP633 collected from peak serum sample on day 43 from patient with myelodysplastic syndrome at 3.9 mg/kg in presence of human serum to Cmax for patient with myelodysplastic syndrome at 3.9 mg/kg; assay type: functional
[25] = Cmax in patient with acute lymphoblastic leukemia infected with Candida albicans FP633 at 1.2 mg/kg administered once daily after 17 days by HPLC; assay type: ADME, organism-based; set-up: dose 1.2 mg/kg; details: human, in vivo
Candida albicans [26] = test: Antifungal activity against Candida albicans FP633 collected from trough serum sample on day 8 from patient with acute myeloid leukemia at 1.1 mg/kg by disk diffusion method; assay type: functional
Candida albicans [27] = test: Antifungal activity against Candida albicans FP633 collected from peak serum sample on day 15 from patient with acute myeloid leukemia at 1.1 mg/kg by disk diffusion method; assay type: functional
Candida albicans [28] = test: Antifungal activity against Candida albicans FP633 collected from trough serum sample on day 15 from patient with acute lymphoblastic leukemia at 1.2 mg/kg by disk diffusion method in presence of human serum; assay type: functional
[29] = Cmax in patient with malignant lymphoma infected with Candida albicans FP633 at 3.9 mg/kg administered once daily after 10 days by HPLC; assay type: ADME, organism-based; set-up: dose 3.9 mg/kg; details: human, in vivo
[30] = Ratio of MIC for Candida albicans FP633 collected from peak serum sample on day 15 from patient with acute myeloid leukemia at 1.1 mg/kg in presence of human serum to Cmax for patient with acute myeloid leukemia at 1.1 mg/kg; assay type: functional
Candida albicans [31] = test: Antifungal activity against Candida albicans FP633 collected from peak serum sample on day 43 patient with malignant lymphoma at 4.8 mg/kg by disk diffusion method in presence of human serum; assay type: functional
[32] = Ratio of MIC for Candida albicans FP633 collected from peak serum sample on day 17 from patient with acute lymphoblastic leukemia at 1.2 mg/kg in presence of human serum to Cmax for patient with acute lymphoblastic leukemia at 1.2 mg/kg; assay type: functional
Candida albicans [33] = test: Antifungal activity against Candida albicans FP633 collected from peak serum sample on day 17 from patient with acute lymphoblastic leukemia at 1.2 mg/kg by disk diffusion method; assay type: functional
[34] = Cmax in patient with malignant lymphoma infected with Candida albicans FP633 at 5.8 mg/kg administered once daily after 8 days by HPLC; assay type: ADME, organism-based; set-up: dose 5.8 mg/kg; details: human, in vivo
Candida albicans [35] = test: Antifungal activity against Candida albicans FP633 collected from peak serum sample on day 8 from patient with acute myeloid leukemia at 1.1 mg/kg by disk diffusion method; assay type: functional
[36] = Ratio of MIC for Candida albicans FP633 collected from trough serum sample on day 15 from patient with acute myeloid leukemia at 1.1 mg/kg in presence of human serum to Cmax for patient with acute myeloid leukemia at 1.1 mg/kg; assay type: functional
[37] = Ratio of MIC for Candida albicans FP633 collected from peak serum sample on day 43 from patient with malignant lymphoma at 4.8 mg/kg to Cmax for patient with malignant lymphoma at 4.8 mg/kg; assay type: functional
[38] = Ratio of MIC for Candida albicans FP633 collected from trough serum sample on day 15 from patient with acute lymphoblastic leukemia at 1.2 mg/kg to Cmax for patient with acute lymphoblastic leukemia at 1.2 mg/kg; assay type: functional
Candida albicans [39] = test: Antifungal activity against Candida albicans FP633 collected from peak serum sample on day 15 from patient with acute lymphoblastic leukemia at 1.2 mg/kg by disk diffusion method; assay type: functional
[40] = Cmax in patient with myelodysplastic syndrome infected with Candida albicans FP633 at 1.4 mg/kg administered once daily after 45 days by HPLC; assay type: ADME, organism-based; set-up: dose 1.4 mg/kg; details: human, in vivo
Candida albicans [41] = test: Antifungal activity against Candida albicans FP633 collected from trough serum sample on day 8 from patient with acute myeloid leukemia at 1.1 mg/kg by disk diffusion method in presence of human serum; assay type: functional
Candida albicans [42] = test: Antimicrobial activity against Candida albicans FP633 in presence of heat inactivated mouse serum; assay type: functional
[43] = Ratio of MIC for Candida albicans FP633 collected from peak serum sample on day 8 from patient with acute myeloid leukemia at 1.1 mg/kg to Cmax for patient with acute myeloid leukemia at 1.1 mg/kg; assay type: functional
[44] = Ratio of MIC for Candida albicans FP633 collected from peak serum sample on day 8 from patient with acute myeloid leukemia at 1.1 mg/kg in presence of human serum to Cmax for patient with acute myeloid leukemia at 1.1 mg/kg; assay type: functional
[45] = Cmax in patient with acute lymphoblastic leukemia infected with Candida albicans FP633 at 1.2 mg/kg administered once daily after 15 days by HPLC; assay type: ADME, organism-based; set-up: dose 1.2 mg/kg; details: human, in vivo
Candida albicans [46] = test: Antifungal activity against Candida albicans FP633 collected from peak serum sample on day 8 from patient with acute myeloid leukemia at 1.1 mg/kg by disk diffusion method in presence of human serum; assay type: functional
Candida albicans [47] = test: Antifungal activity against Candida albicans FP633 collected from trough serum sample on day 15 from patient with acute lymphoblastic leukemia at 1.2 mg/kg by disk diffusion method; assay type: functional
[48] = Cmax in patient with malignant lymphoma infected with Candida albicans FP633 at 4.8 mg/kg administered once daily after 43 days by HPLC; assay type: ADME, organism-based; set-up: dose 4.8 mg/kg; details: human, in vivo
[49] = Ratio of MIC for Candida albicans FP633 collected from peak serum sample on day 15 from patient with acute lymphoblastic leukemia at 1.2 mg/kg in presence of human serum to Cmax for patient with acute lymphoblastic leukemia at 1.2 mg/kg; assay type: functional
[50] = Ratio of MIC for Candida albicans FP633 collected from peak serum sample on day 43 from patient with myelodysplastic syndrome at 3.9 mg/kg to Cmax for patient with myelodysplastic syndrome at 3.9 mg/kg; assay type: functional

CCCCCOc1ccc(-c2cc(-c3ccc(C(=O)N[C@H]4C[C@@H](O)[C@@H](O)NC(=O)[C@@H]5[C@@H](O)[C@@H](C)CN5C(=O)[C@H]([C@H](O)CC(N)=O)NC(=O)[C@H]([C@H](O)[C@@H](O)c5ccc(O)c(OS(=O)(=O)O)c5)NC(=O)[C@@H]5C[C@@H](O)CN5C(=O)[C@H]([C@@H](C)O)NC4=O)cc3)no2)cc1 [MICAFUNGIN] (X1-[Orn(4R-OH,5R-OH)]T[Hyp][hTyr(3S-OH,4S-OH,3'-OSO3H)][Gln(3R-OH)][Pro(3S-OH,4S-Me)]; lactam 1-C)
Ratio [1]: 94
Ratio [2]: 78
Activity (Candida albicans [3]): 6 µg/mL
Cmax [4]: 16400 ng/mL
Ratio [5]: 32
Ratio [6]: 52
Ratio [7]: 71
Activity (Candida albicans [8]): 4.2 µg/mL
Activity (Candida albicans [9]): 22.1 µg/mL
Activity (Candida albicans [10]): 14.1 µg/mL
Activity (Candida albicans [11]): 5.2 µg/mL
Ratio [12]: 135
Ratio [13]: 45
Ratio [14]: 37
Ratio [15]: 44
Activity (Candida albicans [16]): 2.5 µg/mL
Activity (Candida albicans [17]): 5.9 µg/mL
Cmax [18]: 5600 ng/mL
PB (Serum): 99.8%
Activity (Candida albicans [19]): 1 µg/mL
Activity (Candida albicans [20]): 1.7 µg/mL
Cmax [21]: 8400 ng/mL
Activity (Candida albicans [22]): 7 µg/mL
Ratio [23]: 42
Ratio [24]: 63
Cmax [25]: 6500 ng/mL
Activity (Candida albicans [26]): 1.1 µg/mL
Activity (Candida albicans [27]): 2.5 µg/mL
Activity (Candida albicans [28]): 1.6 µg/mL
Cmax [29]: 34200 ng/mL
Ratio [30]: 92
Activity (Candida albicans [31]): 34.8 µg/mL
Ratio [32]: 91
Activity (Candida albicans [33]): 2.9 µg/mL
Cmax [34]: 33600 ng/mL
Activity (Candida albicans [35]): 3.8 µg/mL
Ratio [36]: 58
Ratio [37]: 38
Ratio [38]: 40
Activity (Candida albicans [39]): 3.3 µg/mL
Cmax [40]: 6700 ng/mL
Activity (Candida albicans [41]): 2.1 µg/mL
MIC (Candida albicans [42]): 1 µg/mL
Ratio [43]: 42
Ratio [44]: 96
Cmax [45]: 6400 ng/mL
Activity (Candida albicans [46]): 8.1 µg/mL
Activity (Candida albicans [47]): 0.9 µg/mL
Cmax [48]: 37100 ng/mL
Ratio [49]: 109
Ratio [50]: 38
